Values of other authors in patent US20250275917A1, “TOPICAL FOAMABLE PHARMACEUTICAL COMPOSITION” (EUROFARMA LABORATORIOS S.A., priority 2021, published 2025).

Settings: systemic absorption

## Nc1cc(N2CCCCC2)nc(N)[n+]1[O-] [Minoxidil]
  concentration associated with adverse effects: 20 ng/mL
